Eleven compounds from ChEMBL document CHEMBL1201862, “PubChem BioAssay data set” (2004) can be followed below.

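How tested: cells in 96-well plates exposed to compound for 48 hours at five concentrations. GI50 is the concentration that inhibits growth by half.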 Calls of active or inactive are those of the source. Cut-off read from the data, not from the text of the source: active = GI50 up to about 1.1 µM and inactive = higher. Some results are limits rather than exact numbers.

Test systems include RXF 393; COLO 205; SF-295; SNB-75; A549; ACHN; U-251; RPMI-8226; PC-3; SF-539; NCI-H23; OVCAR-8; HCT-15; DU-145; BT-549; HOP-62; UACC-62; KM12; OVCAR-4; CCRF-CEM.
Assay in all cases: NCI-60 cell line screen, 48 h

As to `O=C(Nc1ccc([As](=O)(O)O)cc1)Nc1cccc(Cl)c1Cl`, the GI50 in the test with RXF 393 is 22.2 µM (inactive); in the test on COLO 205 it was > 100 µM (inactive); with SF-295, 65.5 µM (inactive); with SNB-75 it was 21.7 µM (inactive); in the test on A549, > 100 µM (inactive); in the test with ACHN, > 100 µM (inactive). The GI50 in the test with U-251 was 36.5 µM (inactive); in the test with RPMI-8226 it was > 100 µM (inactive); in the test on PC-3, 83.9 µM (inactive); in the test on SF-539, > 100 µM (inactive); in the test with NCI-H23 it was > 100 µM (inactive); with OVCAR-8, 46.2 µM (inactive). Moreover, the GI50 in the test on HCT-15 is more than 100 µM; in the test with DU-145, > 100 µM (inactive); in the test with BT-549, > 100 µM (inactive); in the test with HOP-62, 70 µM (inactive); in the test with UACC-62, > 100 µM (inactive); in the test on KM12, > 100 µM (inactive). For the same compound, the GI50 in the test with OVCAR-4 is 18.7 µM (inactive).
As to `c1cc(-c2ncc(-c3ccc4c(c3)CCCO4)o2)ccn1`, the GI50 is 8.83 µM (inactive) in the test on RXF 393; 5.42 µM (inactive) in the test on COLO 205; 16.6 µM (inactive) with SF-295; 2.08 µM (inactive) in the test on SNB-75; 7.41 µM (inactive) in the test with A549; 22.3 µM (inactive) with ACHN. Also, the GI50 in the test with U-251 was 11.2 µM (inactive); in the test with CCRF-CEM, 4.83 µM (inactive); in the test with RPMI-8226 it was 8.47 µM (inactive); in the test with PC-3 it was 11.5 µM (inactive); in the test on SF-539, 9.38 µM (inactive); with NCI-H23, 14.7 µM (inactive). Moreover, the GI50 in the test on OVCAR-8 was 16.7 µM (inactive); in the test with HCT-15, 6.24 µM; in the test with DU-145, 12 µM (inactive); with BT-549, 13.2 µM (inactive); in the test with HOP-62 it was 18.1 µM (inactive); in the test with UACC-62 it was 15.6 µM (inactive). For the same compound, the GI50 with OVCAR-4 is 18 µM (inactive).
For `CSc1nc(NC2CCCC2)c2cc[nH]c2n1`, the GI50 was > 100 µM (inactive) in the test on RXF 393; 48.4 µM (inactive) in the test on COLO 205; 34.8 µM (inactive) in the test with SF-295; 50.6 µM (inactive) in the test on A549; 64.7 µM (inactive) in the test with ACHN; 36.4 µM (inactive) in the test with U-251. Moreover, the GI50 was 47.4 µM (inactive) in the test on CCRF-CEM; 33.6 µM (inactive) in the test on RPMI-8226; 43.5 µM (inactive) in the test with PC-3; > 100 µM (inactive) in the test with SF-539; 91 µM (inactive) in the test on NCI-H23; 89.1 µM (inactive) in the test on OVCAR-8. Besides, the GI50 was 54.2 µM in the test with HCT-15; > 100 µM (inactive) with DU-145; 74.6 µM (inactive) with BT-549; > 100 µM (inactive) in the test with HOP-62; 23.5 µM (inactive) in the test on UACC-62; 54.6 µM (inactive) with KM12. For the same compound, the GI50 with OVCAR-4 is 48.5 µM (inactive).
For `NS(=O)(=O)c1nnc(NS(=O)(=O)c2ccccc2[N+](=O)[O-])s1`, the GI50 with RXF 393, with COLO 205, in the test on SF-295, in the test on SNB-75, with A549 and in the test on ACHN was > 100 µM (inactive) throughout. Further, the GI50 was > 100 µM (inactive) with U-251; > 100 µM (inactive) with RPMI-8226; > 100 µM (inactive) with PC-3; > 100 µM (inactive) with SF-539; > 100 µM (inactive) with NCI-H23; more than 100 µM with HCT-15. The GI50 in the test with DU-145, in the test on BT-549, with HOP-62, in the test on UACC-62, in the test on KM12 and in the test on OVCAR-4 was > 100 µM (inactive) each time.
Take `C[C@]12CC/C(=N\O)C=C1CC[C@@H]1[C@@H]2CC[C@]2(C)C(=N/O)/C(=C/c3ccncc3)C[C@@H]12`: the GI50 is 24.3 µM (inactive) with RXF 393; 15.9 µM (inactive) in the test with COLO 205; 31.3 µM (inactive) in the test on SF-295; 25.5 µM (inactive) with SNB-75; 11.1 µM (inactive) in the test with A549; 18.7 µM (inactive) in the test on ACHN. In addition, the GI50 in the test on U-251 is 29.2 µM (inactive); in the test on RPMI-8226, 6.85 µM (inactive); in the test on PC-3 it was 14 µM (inactive); with SF-539, 31.8 µM (inactive); in the test with NCI-H23 it was 31.5 µM (inactive); with OVCAR-8, 24.6 µM (inactive). Moreover, the GI50 is 5.48 µM in the test with HCT-15; 31.6 µM (inactive) in the test with DU-145; 36.1 µM (inactive) in the test with BT-549; 41.2 µM (inactive) with HOP-62; 16.4 µM (inactive) with UACC-62; 17.3 µM (inactive) with KM12. Moreover, the GI50 in the test with OVCAR-4 was 31.9 µM (inactive).
In the case of `CCOC(=O)c1cc([N+](=O)[O-])cc([N+](=O)[O-])c1Sc1[nH]cnc2ncnc1-2`, the GI50 in the test with RXF 393 is 1.82 µM (inactive); in the test on COLO 205 it was 2.17 µM (inactive); with SF-295, 7.29 µM (inactive); in the test with SNB-75, 10.3 µM (inactive); in the test with A549, 14.3 µM (inactive); in the test on ACHN it was 1.96 µM (inactive). The GI50 with U-251 is 8.71 µM (inactive); in the test on CCRF-CEM, 0.462 µM (active); with RPMI-8226, 1.65 µM (inactive); with PC-3, 3.73 µM (inactive); in the test on SF-539, 2.92 µM (inactive); with OVCAR-8, 1.93 µM (inactive). In addition, the GI50 with HCT-15 was 4.33 µM; in the test with DU-145, 1.31 µM (inactive); with BT-549, 2.24 µM (inactive); in the test with HOP-62, 3.54 µM (inactive); in the test with UACC-62, 4.5 µM (inactive); in the test with KM12, 5.25 µM (inactive). For the same compound, the GI50 in the test with OVCAR-4 is 1.03 µM (active).
With `CC(C)(Cl)C(Br)CCC(C)(Cl)C(Br)CBr` (stereo unspecified), the GI50 in the test with RXF 393 was 32.7 µM (inactive); in the test on COLO 205 it was 18.5 µM (inactive); with SF-295, 20.2 µM (inactive); with SNB-75, 25.1 µM (inactive); with A549, 29.8 µM (inactive); in the test on ACHN, 21.2 µM (inactive). In addition, the GI50 is 24.1 µM (inactive) with U-251; 18.8 µM (inactive) in the test on CCRF-CEM; 18.1 µM (inactive) in the test with RPMI-8226; 27.2 µM (inactive) with PC-3; 24.5 µM (inactive) with SF-539; 20.7 µM (inactive) with NCI-H23. In addition, the GI50 was > 100 µM (inactive) with OVCAR-8; 24.6 µM with HCT-15; 29 µM (inactive) in the test on DU-145; 13.3 µM (inactive) in the test on BT-549; 24.9 µM (inactive) in the test on HOP-62; 38.2 µM (inactive) in the test with UACC-62. Also, the GI50 with OVCAR-4 is 28.3 µM (inactive).
As for `Oc1ccc2c(c1)OCC(O)(c1ccccc1O)C2` (stereo unspecified), the GI50 was > 100 µM (inactive) in the test with RXF 393; > 100 µM (inactive) in the test on COLO 205; > 100 µM (inactive) in the test on SF-295; 61.4 µM (inactive) with SNB-75; > 100 µM (inactive) in the test with ACHN; > 100 µM (inactive) in the test with U-251. Moreover, the GI50 in the test with CCRF-CEM, in the test on RPMI-8226, in the test with PC-3, in the test on SF-539, in the test on NCI-H23 and with OVCAR-8 was > 100 µM (inactive) each time. Besides, the GI50 in the test with HCT-15 is more than 100 µM; in the test on DU-145, > 100 µM (inactive); in the test with BT-549 it was > 100 µM (inactive); in the test with HOP-62 it was > 100 µM (inactive); with UACC-62 it was > 100 µM (inactive); with KM12 it was > 100 µM (inactive). Further, in the test on OVCAR-4, the GI50 was > 100 µM (inactive).
Consider `S=C(S)N1CCN(c2ccc(Cl)c(Cl)c2)CC1`, for which the GI50 with RXF 393 is 56.9 µM (inactive); in the test on COLO 205, 18.2 µM (inactive); in the test with SF-295, 28.7 µM (inactive); in the test on SNB-75, 20.7 µM (inactive); with A549, 45.8 µM (inactive); with ACHN it was 37.2 µM (inactive). Moreover, the GI50 with U-251 was 26.3 µM (inactive); in the test with CCRF-CEM, 13 µM (inactive); in the test with RPMI-8226, 19.5 µM (inactive); with PC-3, 19.6 µM (inactive); in the test with SF-539 it was 24.3 µM (inactive); with OVCAR-8, 46.9 µM (inactive). The GI50 in the test on HCT-15 was 34.2 µM; in the test with DU-145, 25.9 µM (inactive); in the test on BT-549 it was 51.3 µM (inactive); in the test on HOP-62, 29.5 µM (inactive); in the test on KM12 it was 16.3 µM (inactive).
Turning to `Nc1ncc2c(n1)-c1ccccc1OC2NC1CC1` (stereo unspecified), the GI50 in the test on RXF 393, in the test with COLO 205, in the test with SF-295, with SNB-75, with A549 and in the test on ACHN was > 100 µM (inactive) throughout. In addition, the GI50 with U-251, in the test on CCRF-CEM, in the test on RPMI-8226, in the test with PC-3, in the test on SF-539 and in the test on NCI-H23 was > 100 µM (inactive) in each case. Moreover, the GI50 is > 100 µM (inactive) in the test on OVCAR-8; more than 100 µM in the test on HCT-15; > 100 µM (inactive) in the test with DU-145; > 100 µM (inactive) in the test with BT-549; > 100 µM (inactive) in the test on UACC-62; > 100 µM (inactive) in the test with KM12. For the same compound, in the test on OVCAR-4, the GI50 was > 100 µM (inactive).
As to `COC(=O)C1(C)CCCC2(C)C3CCC4CC3(C=C4CO)CCC12` (stereo unspecified), the GI50 was 56.4 µM (inactive) with RXF 393; 74.8 µM (inactive) in the test with COLO 205; 60.4 µM (inactive) in the test with SF-295; 37.2 µM (inactive) in the test with SNB-75; > 100 µM (inactive) in the test with A549; 41 µM (inactive) with ACHN. For the same compound, the GI50 in the test on U-251 was 57.4 µM (inactive); in the test with CCRF-CEM it was 41.7 µM (inactive); in the test on RPMI-8226, 24.9 µM (inactive); in the test with PC-3, 33.1 µM (inactive); in the test with SF-539, 32.1 µM (inactive); in the test on NCI-H23 it was 38.1 µM (inactive). For the same compound, the GI50 is 36.9 µM (inactive) in the test on OVCAR-8; 17.4 µM with HCT-15; > 100 µM (inactive) with DU-145; 49.3 µM (inactive) in the test on BT-549; 75 µM (inactive) in the test on HOP-62; > 100 µM (inactive) in the test on UACC-62. Moreover, the GI50 in the test on OVCAR-4 is 68.2 µM (inactive).
